Values after ≈ are worked out from the molar mass of the structure shown.
Assays:
[1] = target: T1, Phosphatidylinositol 4,5-bisphosphate 3-kinase catalytic subunit gamma isoform (Homo sapiens, UniProt P48736); assay: Inhibition of N-terminus poly-His tagged human PI3Kgamma expressed in baculovirus infected insect sf9 cells using PI(4,5)P2 as substrate preincubated with compound for 15 mins measured after 10 mins by HTRF assay
[2] = target: T1, Phosphatidylinositol 4,5-bisphosphate 3-kinase catalytic subunit gamma isoform; assay: Inhibition of human PI3Kgamma-mediated Akt phosphorylation at Ser473 residue expressed in mouse RAW264.7 cells after 0.5 to 2 hrs by Western blot analysis; format: cell-based
[3] = Inhibition of mTORC2-mediated Akt phosphorylation at Ser473 residue in PTEN-deficient human PC3 cells after 2 hrs by Western blot analysis; format: cell-based; conditions: PC-3, 2 h
[4] = target: T2, Phosphatidylinositol 4,5-bisphosphate 3-kinase catalytic subunit alpha isoform (Homo sapiens, UniProt P42336); assay: Inhibition of human PI3Kalpha-mediated Akt phosphorylation at Ser473 residue expressed in human H460 cells after 0.5 to 2 hrs by Western blot analysis; format: cell-based
T2 sequence (P42336 whole entry, canonical isoform): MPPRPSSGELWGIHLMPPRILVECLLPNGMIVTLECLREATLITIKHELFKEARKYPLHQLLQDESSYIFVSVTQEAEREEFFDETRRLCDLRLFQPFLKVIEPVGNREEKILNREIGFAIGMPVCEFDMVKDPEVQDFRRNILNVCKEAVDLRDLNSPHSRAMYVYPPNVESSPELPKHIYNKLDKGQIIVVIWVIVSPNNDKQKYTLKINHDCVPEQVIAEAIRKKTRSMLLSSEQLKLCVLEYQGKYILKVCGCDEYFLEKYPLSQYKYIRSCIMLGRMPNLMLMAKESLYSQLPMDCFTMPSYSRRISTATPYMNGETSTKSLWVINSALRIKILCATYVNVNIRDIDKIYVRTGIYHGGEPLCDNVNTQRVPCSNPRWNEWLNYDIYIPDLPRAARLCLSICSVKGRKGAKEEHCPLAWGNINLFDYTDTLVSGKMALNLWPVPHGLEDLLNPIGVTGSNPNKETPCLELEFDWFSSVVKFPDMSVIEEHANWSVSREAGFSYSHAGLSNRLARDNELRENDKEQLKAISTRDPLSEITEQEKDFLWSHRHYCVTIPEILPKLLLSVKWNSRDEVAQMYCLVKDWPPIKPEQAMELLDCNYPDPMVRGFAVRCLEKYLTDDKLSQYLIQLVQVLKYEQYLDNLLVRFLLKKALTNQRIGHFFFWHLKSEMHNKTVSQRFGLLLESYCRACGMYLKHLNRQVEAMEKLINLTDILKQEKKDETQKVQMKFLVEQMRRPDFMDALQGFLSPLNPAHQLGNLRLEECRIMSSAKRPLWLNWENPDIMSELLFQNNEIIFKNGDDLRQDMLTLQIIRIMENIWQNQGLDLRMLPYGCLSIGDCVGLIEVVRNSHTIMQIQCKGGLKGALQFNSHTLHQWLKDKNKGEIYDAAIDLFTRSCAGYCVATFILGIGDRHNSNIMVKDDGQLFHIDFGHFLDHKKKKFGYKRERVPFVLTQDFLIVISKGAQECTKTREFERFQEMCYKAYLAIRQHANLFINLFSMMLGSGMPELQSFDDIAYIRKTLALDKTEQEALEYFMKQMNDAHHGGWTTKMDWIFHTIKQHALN

[5] = target: T3, Phosphatidylinositol 4,5-bisphosphate 3-kinase catalytic subunit delta isoform (Homo sapiens, UniProt O00329); assay: Inhibition of human PI3Kdelta-mediated Akt phosphorylation at Ser473 residue expressed in mouse MEF-3T3 cells after 0.5 to 2 hrs by Western blot analysis; format: cell-based
T3 sequence (O00329 whole entry): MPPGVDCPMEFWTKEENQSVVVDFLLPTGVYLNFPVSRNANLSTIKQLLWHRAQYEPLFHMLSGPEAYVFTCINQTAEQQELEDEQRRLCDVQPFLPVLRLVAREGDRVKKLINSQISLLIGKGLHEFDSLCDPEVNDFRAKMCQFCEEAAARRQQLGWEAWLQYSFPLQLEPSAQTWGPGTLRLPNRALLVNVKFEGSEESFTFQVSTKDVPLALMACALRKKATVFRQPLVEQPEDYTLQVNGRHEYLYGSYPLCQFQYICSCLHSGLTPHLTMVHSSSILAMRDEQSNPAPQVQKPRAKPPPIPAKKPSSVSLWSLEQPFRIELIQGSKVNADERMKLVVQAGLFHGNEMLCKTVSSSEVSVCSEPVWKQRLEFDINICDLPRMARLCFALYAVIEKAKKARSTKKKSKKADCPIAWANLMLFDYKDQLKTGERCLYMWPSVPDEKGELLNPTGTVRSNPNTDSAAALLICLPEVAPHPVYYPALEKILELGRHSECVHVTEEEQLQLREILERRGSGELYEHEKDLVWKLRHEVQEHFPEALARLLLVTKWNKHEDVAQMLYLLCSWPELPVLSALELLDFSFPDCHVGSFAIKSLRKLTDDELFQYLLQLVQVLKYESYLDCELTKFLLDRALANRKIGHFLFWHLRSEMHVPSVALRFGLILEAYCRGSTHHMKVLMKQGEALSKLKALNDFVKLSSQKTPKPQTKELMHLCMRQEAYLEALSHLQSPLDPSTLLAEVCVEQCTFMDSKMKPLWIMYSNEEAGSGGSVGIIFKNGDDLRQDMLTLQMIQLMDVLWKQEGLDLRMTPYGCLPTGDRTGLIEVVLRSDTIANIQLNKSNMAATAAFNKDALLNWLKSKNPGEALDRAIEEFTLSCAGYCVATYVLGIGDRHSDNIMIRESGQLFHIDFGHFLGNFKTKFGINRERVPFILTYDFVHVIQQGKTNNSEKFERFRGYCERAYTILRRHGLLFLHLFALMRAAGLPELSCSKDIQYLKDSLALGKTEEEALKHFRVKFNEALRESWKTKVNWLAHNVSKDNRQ

[6] = target: T3, Phosphatidylinositol 4,5-bisphosphate 3-kinase catalytic subunit delta isoform; assay: Inhibition of poly-His tagged human PI3Kdelta expressed in baculovirus infected insect sf9 cells coexpressing p85alpha using PI(4,5)P2 as substrate preincubated with compound for 15 mins measured after 10 mins by HTRF assay
[7] = target: T2, Phosphatidylinositol 4,5-bisphosphate 3-kinase catalytic subunit alpha isoform; assay: Inhibition of N-terminus poly-His tagged human PI3Kalpha expressed in baculovirus infected insect sf9 cells coexpressing p85alpha using PI(4,5)P2 as substrate preincubated with compound for 15 mins measured after 10 mins by HTRF assay
[8] = target: T4, Phosphatidylinositol 4,5-bisphosphate 3-kinase catalytic subunit beta isoform (Homo sapiens, UniProt P42338); assay: Inhibition of human PI3Kbeta-mediated Akt phosphorylation at Ser473 residue expressed in PTEN-deficient human PC3 cells by chemiluminescence assay; format: cell-based, PC-3
T4 sequence (P42338 whole entry, canonical isoform): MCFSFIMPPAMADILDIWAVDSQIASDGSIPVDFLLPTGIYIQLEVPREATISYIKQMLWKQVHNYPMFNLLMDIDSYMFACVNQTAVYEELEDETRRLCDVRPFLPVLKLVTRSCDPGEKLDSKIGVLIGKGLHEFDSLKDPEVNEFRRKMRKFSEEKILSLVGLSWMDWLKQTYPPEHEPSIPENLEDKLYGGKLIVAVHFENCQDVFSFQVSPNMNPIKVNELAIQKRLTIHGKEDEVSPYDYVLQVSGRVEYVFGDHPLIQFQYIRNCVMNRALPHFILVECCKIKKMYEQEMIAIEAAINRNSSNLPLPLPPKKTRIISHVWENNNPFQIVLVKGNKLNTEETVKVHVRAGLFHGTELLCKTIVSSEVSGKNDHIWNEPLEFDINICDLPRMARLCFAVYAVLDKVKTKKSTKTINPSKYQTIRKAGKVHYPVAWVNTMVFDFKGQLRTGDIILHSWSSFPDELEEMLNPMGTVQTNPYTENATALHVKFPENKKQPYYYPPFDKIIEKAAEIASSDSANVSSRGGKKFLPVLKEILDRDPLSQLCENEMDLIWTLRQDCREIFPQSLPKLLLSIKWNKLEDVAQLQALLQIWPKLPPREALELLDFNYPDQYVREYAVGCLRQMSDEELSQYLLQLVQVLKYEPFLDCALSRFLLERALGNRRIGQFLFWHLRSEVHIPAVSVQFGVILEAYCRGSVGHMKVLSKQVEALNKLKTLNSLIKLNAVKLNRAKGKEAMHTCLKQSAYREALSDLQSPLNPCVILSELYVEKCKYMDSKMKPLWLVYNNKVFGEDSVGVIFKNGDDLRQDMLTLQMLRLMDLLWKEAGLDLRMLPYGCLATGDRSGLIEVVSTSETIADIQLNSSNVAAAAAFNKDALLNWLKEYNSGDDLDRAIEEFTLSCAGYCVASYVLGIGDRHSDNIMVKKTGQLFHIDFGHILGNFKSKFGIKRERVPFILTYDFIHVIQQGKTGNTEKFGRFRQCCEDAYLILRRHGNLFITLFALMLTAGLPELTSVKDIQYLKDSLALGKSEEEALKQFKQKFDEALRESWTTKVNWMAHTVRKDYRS

[9] = target: T4, Phosphatidylinositol 4,5-bisphosphate 3-kinase catalytic subunit beta isoform; assay: Inhibition of human PI3Kbeta-mediated Akt phosphorylation at T308 residue expressed in PTEN-deficient human PC3 cells after 2 hrs by Western blot analysis; format: cell-based, PC-3
[10] = target: T4, Phosphatidylinositol 4,5-bisphosphate 3-kinase catalytic subunit beta isoform; assay: Inhibition of N-terminus poly-His tagged human PI3Kbeta expressed in baculovirus infected insect […] cells coexpressing p85alpha using PI(4,5)P2 as substrate preincubated with compound for 15 mins measured after 10 mins by HTRF assay
[11] = target: Serine/threonine-protein kinase mTOR (Homo sapiens, UniProt P42345); assay: Inhibition of mTOR
[12] = target: Cytochrome P450 3A4 (Homo sapiens, UniProt P08684); assay: Inhibition of human recombinant CPY3A4
Sequence of Cytochrome P450 3A4 (P08684 whole entry): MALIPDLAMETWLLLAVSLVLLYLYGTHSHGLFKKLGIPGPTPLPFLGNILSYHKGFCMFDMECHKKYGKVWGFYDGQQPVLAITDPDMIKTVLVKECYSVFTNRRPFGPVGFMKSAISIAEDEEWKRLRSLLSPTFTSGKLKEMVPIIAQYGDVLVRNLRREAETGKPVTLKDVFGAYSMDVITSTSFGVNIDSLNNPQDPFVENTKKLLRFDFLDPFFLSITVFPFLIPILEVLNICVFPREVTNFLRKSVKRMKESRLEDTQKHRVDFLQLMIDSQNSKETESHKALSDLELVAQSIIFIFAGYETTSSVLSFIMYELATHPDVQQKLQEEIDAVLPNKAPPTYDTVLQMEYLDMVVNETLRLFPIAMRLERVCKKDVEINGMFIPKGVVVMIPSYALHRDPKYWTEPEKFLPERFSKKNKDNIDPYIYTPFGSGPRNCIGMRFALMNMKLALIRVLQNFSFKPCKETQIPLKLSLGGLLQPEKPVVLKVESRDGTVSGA

[13] = Thermodynamic solubility of the compound in phosphate buffer at pH 7.4 after 16 hrs by HPLC analysis; format: physicochemical; conditions: read-out: Therm_solubility
[14] = Apparent permeability of the compound across human Caco2 cells; format: ADME, cell-based; conditions: Caco-2
[15] = Drug metabolism in human liver microsomes; format: ADME, Microsome; conditions: read-out: Drug metabolism
[16] = Drug metabolism in mouse liver microsomes; format: ADME, Microsome; conditions: read-out: Drug metabolism

T1 sequence (P48736 whole entry, canonical isoform): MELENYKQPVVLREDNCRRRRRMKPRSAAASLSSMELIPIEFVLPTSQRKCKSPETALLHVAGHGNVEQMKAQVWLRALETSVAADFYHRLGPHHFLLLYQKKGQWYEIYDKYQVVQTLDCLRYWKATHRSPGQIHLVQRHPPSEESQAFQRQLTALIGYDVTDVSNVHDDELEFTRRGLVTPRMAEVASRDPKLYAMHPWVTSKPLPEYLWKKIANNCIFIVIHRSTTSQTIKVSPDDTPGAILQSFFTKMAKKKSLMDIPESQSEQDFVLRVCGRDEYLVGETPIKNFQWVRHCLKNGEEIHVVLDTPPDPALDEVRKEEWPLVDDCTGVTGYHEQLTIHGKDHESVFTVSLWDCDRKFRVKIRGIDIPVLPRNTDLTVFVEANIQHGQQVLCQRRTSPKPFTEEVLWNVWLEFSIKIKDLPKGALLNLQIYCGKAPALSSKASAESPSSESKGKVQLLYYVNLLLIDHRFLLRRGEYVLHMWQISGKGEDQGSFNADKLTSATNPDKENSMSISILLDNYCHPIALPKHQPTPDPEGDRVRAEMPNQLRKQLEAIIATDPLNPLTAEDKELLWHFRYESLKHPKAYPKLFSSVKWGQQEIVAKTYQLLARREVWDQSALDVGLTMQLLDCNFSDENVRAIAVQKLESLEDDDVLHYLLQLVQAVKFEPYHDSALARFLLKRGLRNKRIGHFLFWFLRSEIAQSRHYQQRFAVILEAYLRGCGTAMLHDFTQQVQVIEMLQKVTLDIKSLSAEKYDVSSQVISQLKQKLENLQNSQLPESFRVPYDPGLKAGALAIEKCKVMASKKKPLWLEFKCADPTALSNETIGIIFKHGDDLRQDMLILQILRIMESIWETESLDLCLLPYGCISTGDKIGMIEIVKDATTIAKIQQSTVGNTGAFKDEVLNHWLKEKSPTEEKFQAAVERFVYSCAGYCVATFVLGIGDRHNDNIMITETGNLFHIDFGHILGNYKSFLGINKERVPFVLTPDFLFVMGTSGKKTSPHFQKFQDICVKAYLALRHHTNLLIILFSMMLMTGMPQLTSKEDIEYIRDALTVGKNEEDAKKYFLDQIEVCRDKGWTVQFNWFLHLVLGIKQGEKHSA

| IC50 [1] | IC50 [2] | IC50 [3] | IC50 [4] | IC50 [5] | IC50 [6] | IC50 [7] | IC50 [8] | IC50 [9] | IC50 [10] | IC50 [11] | IC50 [12] | solubility thermodynamic at 16 h [13] | Papp [14] | metabolised [15] | metabolised [16] | SMILES |
| --- | --- | --- | --- | --- | --- | --- | --- | --- | --- | --- | --- | --- | --- | --- | --- | --- |
| > 10000 nM | > 1000 nM | 10 nM | > 1000 nM | 252 nM | 851 nM | > 10000 nM |  |  |  |  |  |  |  |  |  | Cc1cc(C(C)Nc2ccccc2)c2nc(N3CCOCC3)cc(=O)n2c1 (stereo not drawn) |
|  |  | 3 nM |  |  |  |  | 3 nM | 3 nM | 28 nM |  |  |  |  |  |  | Cc1cc(C(C)Nc2ccccc2)c2oc(N3CCOCC3)cc(=O)c2c1 (stereo not drawn) |
| > 10000 nM |  | 41 nM |  |  | 219 nM | > 10000 nM | 41 nM | 100 nM | 30 nM | > 10000 nM | > 40000 nM | 76 µM (≈ 25 µg/mL) | 0.2 ×10⁻⁶ cm/s | 69% | 0% | O=c1cc(N2CCOCC2)nc(Cc2nc3ccc(F)cc3[nH]2)[nH]1 |
| > 10000 nM |  |  |  |  | 855 nM | > 10000 nM | 16 nM |  | 82 nM | > 10000 nM | > 40000 nM | 3 µM (≈ 1.03 µg/mL) | 3.1 ×10⁻⁶ cm/s | 39% | 20% | Cn1c(Cc2nc(N3CCOCC3)cc(=O)[nH]2)nc2cc(F)ccc21 |
| 8270 nM |  |  |  |  | 225 nM | 1000 nM | 26 nM |  | 72 nM | > 10000 nM | > 40000 nM | 221 µM (≈ 75 µg/mL) | 0.5 ×10⁻⁶ cm/s | 60% | 48% | CCn1c(Cc2nc(N3CCOCC3)cc(=O)[nH]2)nc2ccccc21 |
| > 10000 nM |  |  |  |  | 36 nM | 6790 nM | 8 nM |  | 75 nM | > 10000 nM | > 40000 nM | 397 µM (≈ 154 µg/mL) | 4.4 ×10⁻⁶ cm/s | 98% | 100% | O=c1cc(N2CCOCC2)nc(Cc2nc3ccccc3n2-c2ccccc2)[nH]1 |
| > 10000 nM |  |  |  |  | 180 nM | 5500 nM | 65 nM |  | 10 nM | > 10000 nM | > 40000 nM | 3 µM (≈ 1.16 µg/mL) | 0.1 ×10⁻⁶ cm/s | 78% | 51% | O=c1cc(N2CCOCC2)nc(Cc2nc3c(-c4ccccc4)cccc3[nH]2)[nH]1 |
| > 10000 nM |  |  |  |  | 181 nM | 4580 nM | 17 nM |  | 60 nM | > 10000 nM | > 40000 nM | 2 µM (≈ 0.803 µg/mL) | 3.9 ×10⁻⁶ cm/s | 57% | 55% | Cn1c(Cc2nc(N3CCOCC3)cc(=O)[nH]2)nc2cccc(-c3ccccc3)c21 |
| > 10000 nM |  |  |  |  | 854 nM | > 10000 nM | 26 nM |  | 46 nM | > 10000 nM | > 40000 nM | 3 µM (≈ 0.991 µg/mL) | 16 ×10⁻⁶ cm/s | 47% | 23% | O=c1cc(N2CCOCC2)nc(Cc2nc3cc(F)ccc3o2)[nH]1 |
| > 10000 nM |  |  |  |  | 1180 nM | > 10000 nM | 177 nM |  | 90 nM | > 10000 nM | > 40000 nM | 3 µM (≈ 1.17 µg/mL) | 32.3 ×10⁻⁶ cm/s | 57% | 61% | O=c1cc(N2CCOCC2)nc(Cc2nc3cccc(-c4ccccc4)c3o2)[nH]1 |
| 5740 nM |  |  |  |  | 398 nM | 4360 nM | 22 nM |  | 46 nM | > 10000 nM | 19000 nM | 3 µM (≈ 1.18 µg/mL) | 25.5 ×10⁻⁶ cm/s | 60% | 79% | O=c1cc(N2CCOCC2)nc(Cc2nc3c(-c4cccs4)cccc3o2)[nH]1 |
| > 10000 nM |  |  |  |  | 151 nM | > 10000 nM | 6 nM |  | 8 nM | > 10000 nM | > 40000 nM | 15 µM (≈ 6.1 µg/mL) | 37.1 ×10⁻⁶ cm/s | 18% | 17% | O=c1cc(N2CCOCC2)nc(Cc2nc3c(-c4ccccc4)c(F)ccc3o2)[nH]1 |

From ChEMBL document CHEMBL2062364, “Discovery and optimization of new benzimidazole- and benzoxazole-pyrimidone selective PI3Kβ inhibitors for the treatment of phosphatase and TENsin homologue (PTEN)-deficient cancers” (J Med Chem, 2012)
